According to patent US9056209B2, “Apigenin-containing composition” (Kao Corporation, priority 2009, dated 2015):

Assay: Evaluation of stability of apigenin in composition (apigenin retention ratio by HPLC)
Assay type: physicochemical
Conditions: for Apigenin retention ratio (amount of apigenin stored at 50° C./amount of apigenin stored at −5° C.): apigenin about 9 ppm, stored one month
Experimental: Twenty gram of Roman chamomile was extracted with 200 mL of 50% butanediol for 7 days at room temperature, and then the extract was filtered to obtain 155 mL of a Roman chamomile extract. The evaporation residue in 1 mL of the extract was 18.6 mg, and the amount of apigenin in 1 mL of the extract was 305 ppm. This extract was used as the apigenin-containing extract in the following experiments. BHT was added to each of the solutions of various pH conditions, in an amount of 0, 1, 10, 100 and 500 ppm, respectively, and thus test solutions (final apigenin concentration: about 9 ppm) were prepared. The respective test solutions were stored for one month under the conditions of −5° C. and 50° C., and then the amount of apigenin in each of the solutions was measured by HPLC (Inertsil ODS-3 (internal diameter 3.0 mm, length 150 mm, particle size 5 μm) manufactured by GL Sciences, Inc., eluent: 50% aqueous solution of 25 mM potassium dihydrogen phosphate/50% methanol, column temperature: 40° C., detection: UV 340 nm). The ratio of the amount of apigenin stored at 50° C. with respect to that stored at −5° C. was determined as the apigenin retention ratio.

Question: With `O=c1cc(-c2ccc(O)cc2)oc2cc(O)cc(O)c12` [Apigenin, apigenin] as the compound, how does the “apigenin retention ratio (in words)” value (mass ratio apigenin/BHT about 1 or greater, or pH of the solution less than 7, storage for a long time) read?
Answer: Its value is “high retention ratios were maintained”.

Question: What about the “apigenin retention ratio (in words)” value (mass ratio apigenin/BHT about less than 1 (BHT 10 ppm or more) and pH 7 or higher) of the same compound?
Answer: The value was “the apigenin retention ratio decreased”.

Question: What about the “Apigenin retention ratio (amount of apigenin stored at 50° C./amount of apigenin stored at −5° C.)” value (pH 6, BHT 0 ppm) of the same compound?
Answer: Its value is 103%.

Question: What about the “Apigenin retention ratio (amount of apigenin stored at 50° C./amount of apigenin stored at −5° C.)” value (pH 6, BHT 1 ppm) of the same compound?
Answer: The value was 102%.

Question: What about the “Apigenin retention ratio (amount of apigenin stored at 50° C./amount of apigenin stored at −5° C.)” value (pH 6, BHT 10 ppm) of the same compound?
Answer: The value was 98%.

Question: What about the “Apigenin retention ratio (amount of apigenin stored at 50° C./amount of apigenin stored at −5° C.)” value (pH 6, BHT 100 ppm) of the same compound?
Answer: Its value is 96%.

Question: And the “Apigenin retention ratio (amount of apigenin stored at 50° C./amount of apigenin stored at −5° C.)” value (pH 6, BHT 500 ppm)?
Answer: The value was 96%.

Question: And the “Apigenin retention ratio (amount of apigenin stored at 50° C./amount of apigenin stored at −5° C.)” value (pH 6.5, BHT 0 ppm)?
Answer: The value was 100%.

Question: What about the “Apigenin retention ratio (amount of apigenin stored at 50° C./amount of apigenin stored at −5° C.)” value (pH 6.5, BHT 1 ppm) of the same compound?
Answer: Its value is 94%.

Question: And the “Apigenin retention ratio (amount of apigenin stored at 50° C./amount of apigenin stored at −5° C.)” value (pH 6.5, BHT 10 ppm)?
Answer: Its value is 98%.

Question: What about the “Apigenin retention ratio (amount of apigenin stored at 50° C./amount of apigenin stored at −5° C.)” value (pH 6.5, BHT 100 ppm) of the same compound?
Answer: Its value is 96%.

Question: And the “Apigenin retention ratio (amount of apigenin stored at 50° C./amount of apigenin stored at −5° C.)” value (pH 6.5, BHT 500 ppm)?
Answer: Its value is 99%.

Question: And the “Apigenin retention ratio (amount of apigenin stored at 50° C./amount of apigenin stored at −5° C.)” value (pH 7, BHT 0 ppm)?
Answer: The value was 96%.

Question: And the “Apigenin retention ratio (amount of apigenin stored at 50° C./amount of apigenin stored at −5° C.)” value (pH 7, BHT 1 ppm)?
Answer: Its value is 96%.

Question: And the “Apigenin retention ratio (amount of apigenin stored at 50° C./amount of apigenin stored at −5° C.)” value (pH 7, BHT 10 ppm)?
Answer: The value was 98%.

Question: And the “Apigenin retention ratio (amount of apigenin stored at 50° C./amount of apigenin stored at −5° C.)” value (pH 7, BHT 100 ppm)?
Answer: Its value is 82%.

Question: What about the “Apigenin retention ratio (amount of apigenin stored at 50° C./amount of apigenin stored at −5° C.)” value (pH 7, BHT 500 ppm) of the same compound?
Answer: Its value is 35%.

Question: What about the “Apigenin retention ratio (amount of apigenin stored at 50° C./amount of apigenin stored at −5° C.)” value (pH 8, BHT 0 ppm) of the same compound?
Answer: The value was 98%.

Question: And the “Apigenin retention ratio (amount of apigenin stored at 50° C./amount of apigenin stored at −5° C.)” value (pH 8, BHT 1 ppm)?
Answer: The value was 99%.

Question: And the “Apigenin retention ratio (amount of apigenin stored at 50° C./amount of apigenin stored at −5° C.)” value (pH 8, BHT 10 ppm)?
Answer: The value was 91%.

Question: What about the “Apigenin retention ratio (amount of apigenin stored at 50° C./amount of apigenin stored at −5° C.)” value (pH 8, BHT 100 ppm) of the same compound?
Answer: The value was 73%.

Question: And the “Apigenin retention ratio (amount of apigenin stored at 50° C./amount of apigenin stored at −5° C.)” value (pH 8, BHT 500 ppm)?
Answer: Its value is 11%.
